Results published in doi:10.64898/2025.12.10.692519v1 (biorxiv, 2025).

Experiments:
[1] = system: TG-LAM-136-P0; assay: cells; design: species or system primary AML patient blasts; details: 48 h, read-out: IC50 (µM) / AB8939
[2] = system: TG-LAM-139-P0; assay: cells; design: species or system primary AML patient blasts; details: 48 h, read-out: IC50 (µM) / AB8939
[3] = system: TG-LAM-134-P0; assay: cells; design: species or system primary AML patient blasts; details: 48 h, read-out: IC50 (µM) / AB8939
[4] = system: TG-LAM-141-P0; assay: cells; design: species or system primary AML patient blasts; details: 48 h, read-out: IC50 (µM) / AB8939
[5] = system: TG-LAM-140-P0; assay: cells; design: species or system primary AML patient blasts; details: 48 h, read-out: IC50 (µM) / AB8939
[6] = system: TG-LAM-143-P0; assay: cells; design: species or system primary AML patient blasts; details: 48 h, read-out: IC50 (µM) / AB8939
[7] = system: TG-LAM-77-P0; assay: cells; design: species or system primary AML patient blasts; details: 48 h, read-out: IC50 (µM) / AB8939
[8] = system: TG-LAM-138-P0; assay: cells; design: species or system primary AML patient blasts; details: 48 h, read-out: IC50 (µM) / AB8939
[9] = system: TG-LAM-75-P3; assay: cells; design: species or system primary AML patient blasts; details: 48 h, read-out: IC50 (µM) / AB8939
[10] = system: TG-LAM-145-P0; assay: cells; design: species or system primary AML patient blasts; details: 48 h, read-out: IC50 (µM) / AB8939
[11] = system: TG-LAM-142-P0; assay: cells; design: species or system primary AML patient blasts; details: 48 h, read-out: IC50 (µM) / AB8939
[12] = system: TG-LAM-76-P3; assay: cells; design: species or system primary AML patient blasts; details: 48 h, read-out: IC50 (µM) / AB8939
[13] = system: TG-LAM-135-P0; assay: cells; design: species or system primary AML patient blasts; details: 48 h, read-out: IC50 (µM) / AB8939
[14] = system: TG-LAM-144-P0; assay: cells; design: species or system primary AML patient blasts; details: 48 h, read-out: IC50 (µM) / AB8939
[15] = target: ALDH2 (Homo sapiens, UniProt P05091); assay: NADH fluorescence dehydrogenase assay; type: biochemical
Chain of ALDH2 (P05091 17-517): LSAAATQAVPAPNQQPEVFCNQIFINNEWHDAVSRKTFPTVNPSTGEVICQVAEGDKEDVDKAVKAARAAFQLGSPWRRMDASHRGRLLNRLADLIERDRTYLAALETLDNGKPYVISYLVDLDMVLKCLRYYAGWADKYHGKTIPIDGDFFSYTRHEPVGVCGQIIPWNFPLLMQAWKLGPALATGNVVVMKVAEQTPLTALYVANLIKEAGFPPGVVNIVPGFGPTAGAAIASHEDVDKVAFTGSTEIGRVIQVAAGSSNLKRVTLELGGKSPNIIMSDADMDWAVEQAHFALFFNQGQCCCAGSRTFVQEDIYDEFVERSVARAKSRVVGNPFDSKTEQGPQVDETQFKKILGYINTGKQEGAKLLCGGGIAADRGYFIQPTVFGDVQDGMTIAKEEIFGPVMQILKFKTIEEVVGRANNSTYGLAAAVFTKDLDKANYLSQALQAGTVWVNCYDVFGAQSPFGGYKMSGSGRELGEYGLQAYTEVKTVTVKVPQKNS

[16] = system: HL-60; assay: cells; details: Homo sapiens, HL-60, 144 h, read-out: AB8939
[17] = system: MCF-7; assay: cells; details: Homo sapiens, MCF7, 144 h, read-out: AB8939
[18] = system: NOMO-1; assay: cells; details: Homo sapiens, NOMO-1, 144 h, read-out: AB8939
[19] = system: MDA-MB-468; assay: cells; details: Homo sapiens, MDA-MB-468, 144 h, read-out: AB8939
[20] = system: U-118; assay: cells; details: 144 h, read-out: AB8939
[21] = system: PANC-1; assay: cells; details: Homo sapiens, PANC-1, 144 h, read-out: AB8939
[22] = system: SW-872; assay: cells; details: Homo sapiens, SW872, 144 h, read-out: AB8939
[23] = system: Tov21G; assay: cells; details: Homo sapiens, TOV21G, 144 h, read-out: AB8939
[24] = system: A-549; assay: cells; details: Homo sapiens, A549, 144 h, read-out: AB8939
[25] = system: A4573; assay: cells; details: A4573, 144 h, read-out: AB8939
[26] = system: LnCaP; assay: cells; details: Homo sapiens, LNCaP, 144 h, read-out: AB8939
[27] = system: MESSA; assay: cells; details: Homo sapiens, MES-SA, 144 h, read-out: AB8939
[28] = system: ACHN; assay: cells; details: Homo sapiens, ACHN, 144 h, read-out: AB8939
[29] = system: THP-1; assay: cells; details: Homo sapiens, THP-1, 144 h, read-out: AB8939
[30] = system: DU-145; assay: cells; details: Homo sapiens, DU-145, 144 h, read-out: AB8939

## CCOCc1ccc(C)c(Nc2ncc(-c3ccc(N4CCNC4=O)cc3)o2)c1 [AB8939]
[1]
  IC50: 0.04 µM
[2]
  IC50: 0.94 µM
[3]
  IC50: 0.08 µM
[4]
  IC50: 0.12 µM
[5]
  IC50: 0.06 µM
[6]
  IC50: 0.36 µM
[7]
  IC50: > 5 µM
[8]
  IC50: > 5 µM
[9]
  IC50: 0.05 µM
[10]
  IC50: 1.8 µM
[11]
  IC50: > 5 µM
[12]
  IC50: 0.013 µM
[13]
  IC50: > 5 µM
[14]
  IC50: 0.38 µM
[15]
  IC50: 340 nM
[16]
  IC50: 14 nM
[17]
  IC50: 122 nM
[18]
  IC50: 46 nM
[19]
  IC50: 14 nM
[20]
  IC50: 1 nM
[21]
  IC50: 1 nM
[22]
  IC50: 1 nM
[23]
  IC50: 8 nM
[24]
  IC50: 1 nM
[25]
  IC50: 3 nM
[26]
  IC50: 5 nM
[27]
  IC50: 7 nM
[28]
  IC50: 4 nM
[29]
  IC50: 49 nM
[30]
  IC50: 2 nM
